From patent publication US20250213550A1, “COMPOUNDS AND METHODS FOR TREATING INFLAMMATORY BOWEL DISEASE” (Gilead Sciences, Inc., priority 2023, published 2025)
Where two headings read alike, the source gives them in different places.

Tests used:
Assay type in all cases: in vivo, human
[1] = Food effect on Compound A plasma PK after single dose Compound 1 600 mg; settings: for Tmax: 600 mg, read-out: median Tmax
Protocol: (§1) A Phase 1, open-label, single-center, multiple-cohort study was conducted to evaluate the effect of a mixed OATP/P-gp inhibitor (cyclosporine A; CsA) or food on the PK of Compound 1, the effect of Compound 1 on the PK of midazolam (MDZ), the effect of Compound 1 on the PK of OATP/CYP3A/BCRP substrates using atorvastatin (ATV), pravastatin (PRA), and rosuvastatin (ROS), and the effect of Compound 1 on the PK of a representative combined oral contraceptive (drospirenone/ethinyl estradiol; DRSP/EE), in healthy participants. 70 participants ages 18 to 55 years (inclusive) and having BMI of ≥18.0 kg/m^2 and ≤30.0 kg/m^2 were enrolled. For Cohorts 1-3, there were an approximately even distribution of healthy participants assigned male at birth and nonpregnant, nonlactating participants assigned female at birth. Cohort 4 included only healthy, nonpregnant, nonlactating participants assigned female at birth.
Participants in Cohort 1 were randomized to 1 of 2 treatment sequences (ABC or BAC), in a 1:1 ratio.
Treatment A: Single dose of Compound 1 600 mg, administered in the AM, under fasted conditions
Treatment B: Single dose of Compound 1 600 mg, administered in the AM, within 5 minutes of completing a high-fat/high-calorie meal
• Periods 1, 2, and 3: Day 1, 0 (pre-dose, ≤5 min before dose), 0.25, 0.5, 1, 1.5, 2, 3, 4, 6, 8, 12, 18, 24, 36, 48, 72, and 96 hours post-dose; and at the early termination (ET) visit, as applicable
(§2) Concentrations of Compound 1 and its active metabolites Compound A and Compound B, MDZ and its metabolite 1-OH-MDZ, ATV and its metabolite 2-OH-ATV, PRA, ROS, DRSP, and EE in plasma PK samples were determined by validated high performance liquid chromatography tandem mass spectrometry (LC-MS/MS) bioanalytical methods.
Pharmacokinetic parameters were determined for Compound 1 and its metabolites for all cohorts, MDZ and 1-OH-MDZ for Cohort 2; ATV, 2-OH-ATV, PRA, and ROS for Cohort 3; and DRSP and EE for Cohort 4.

OATP/P-gp = experiment: Drug-drug interaction: mixed OATP/P-gp inhibitor CsA on PK of Compound A; settings: co-administration of Compound 1 600 mg with CsA 600 mg, fasted
Protocol: as §1
Treatment C: Single dose of Compound 1 600 mg, administered in the AM, under fasted conditions with a single dose of CsA 600 mg […]
as §2

[2] = Phase 1 single- and multiple-ascending dose study: plasma PK of Compound A after oral Compound 1; settings: for Ctau / AUCtau/D / Cmax/D / AUC: Day 10, mean; for AUCtau/D / Cmax/D: dose-normalized; for half-life / AUC / Tmax: human, plasma
Protocol: A 2-part, single- and multiple-ascending dose sponsor-unblinded Phase 1 study was conducted for Cohorts 1-9 to evaluate the safety, tolerability, PK, and PD of Compound 1 in healthy participants. Up to 72 participants ages 18 to 55 years (inclusive) and having body mass index (BMI) of ≥19.0 and ≤30.0 kg/m^2 were enrolled. For Cohort 9, participants were homozygous for the UGT1A1*28 allele (UGT1A1 *28/*28: TA7/TA7).
Part A proceeded in 4 staggered, dose-escalation cohorts. Within each of Cohorts 1-4, 8 unique participants were randomized 3:1 to receive blinded Compound 1 (N=6) or placebo-to-match (PTM) (N=2). The dose of Compound 1 for all adaptive cohorts (Cohorts 2, 3, and 4) was determined based on cumulative safety and available PK data through a minimum of Day 3 from previous cohorts, not exceeding the specified upper dose limit (Table 2). Dosing in Part A was completed prior to proceeding with Part B.
Part B proceeded in up to 5 staggered, dose-escalation cohorts. Within each of Cohorts 5-9, 8 unique participants were randomized 3:1 to receive blinded Compound 1 (N=6) or PTM (N=2). Start of multiple dosing within Adaptive Cohort 5 was determined by review of the cumulative safety and PK data through at least Day 3 of the final cohort in Part A. Initiation of subsequent multiple-dose cohorts at a higher dose (Cohorts 6, 7, 8, and 9) was determined based on cumulative safety through at least Day 10 from all participants enrolled in the previous multiple-dose cohort (Table 3).
For Cohorts 1-4, plasma PK sampling occurred relative to the dose of Compound 1 at the following time points: • Day 1: 0 (pre-dose, ≤5 min prior to dosing), 0.25, 0.5, 1, 1.5, 2, 3, 4, 6, 8, 12, 18, 24, 36, 48, 72, 96, and 120 hours post-dose A single plasma PK sample was collected at early termination (ET), if applicable.
For Cohorts 5-9, plasma PK sampling occurred relative to the dose of Compound 1 at the following time points: • Day 1 (Cohorts 8 and 9): pre-dose (≤5 min before dose), 0.5, 1, 2, 3, 4, 6, 8, 12, 13, 14, 15, 16, 18, and 20 hours post-dose (relative to AM dose) • Day 10 (Cohorts 5-9): pre-dose (≤5 min before dose), 0.25, 0.5, 1, 1.5, 2, 3, 4, 6, 8, 12, 18, 24, 36, 48, 72, 96, and 120 hours post-dose • A pre-dose sample was collected on Days 2, 4, 7, and 8. A single plasma PK sample was collected at early termination (ET), if applicable.
Concentrations of Compound 1, and its respective metabolites Compound A and Compound B in plasma PK samples were determined by validated high-performance liquid chromatography-tandem mass spectrometry (LC-MS/MS) bioanalytical methods.
Pharmacokinetic parameters for Compound 1 and its metabolites were determined from the plasma concentration-time profiles for all evaluable participants.
Compound 1 was administered under fasting conditions following an overnight fast (no food or drinks except water) for at least 10 hours; food could be consumed 4 hours after administration of Compound 1.

[3] = Compound 1 600 mg single dose, vs fasting
[4] = Cohort 5, 75 mg Cpd 1 QD fasted
[5] = Cohort 6, 300 mg Cpd 1 QD fasted
[6] = Cohort 7, 900 mg Cpd 1 QD fasted

With `Cn1ccc2c([C@H](Nc3cc(Cl)c4ncc(C#N)c(NCC(C)(C)C)c4c3)c3cn(C45CC(C4)C5)nn3)cccc2c1=O` [Compound A] the “change in Cmax by high-fat/high-calorie meal” value [1, 3] was “no change”, the “increase of AUCinf by high-fat/high-calorie meal” value [1, 3] was 92% and the Tmax ([1]; both sexes, human, plasma, oral, Compound 1 600 mg single dose, fasting) was 4 h. The Tmax ([1]; both sexes, human, plasma, oral, Compound 1 600 mg single dose, with a high-fat/high-calorie meal) was 5 h, the AUC(0-inf) ([1]; both sexes, human, plasma, oral, Cpd 1 600 mg single dose, fasting, Treatment A, mean) was 46300 ng·h/mL and the “AUCinf % GLSM Ratio” value ([1]; non-fasting (test) vs fasting (reference), Cpd 1 600 mg) was 192%. For the same compound, the “increase of Compound A AUCinf” value (OATP/P-gp) was 122%, the “increase of Compound A Cmax” value (OATP/P-gp) was 27% and the Ctau [2, 4] was 0.273 µg/mL. For the same compound, the Ctau [2, 5] was 1.07 µg/mL, the Ctau [2, 6] was 2.33 µg/mL and the “time to steady-state exposures” value ([2]; Compound 1 once-daily dosing) was ≤ 7 days. It also gave an AUCtau/D [2, 4] of 0.141 µg·h/mL, a Cmax/D [2, 4] of 13.1 ng/mL and an AUCtau/D [2, 5] of 0.125 µg·h/mL. For the same compound, the Cmax/D [2, 5] was 10.6 ng/mL, the AUCtau/D [2, 6] was 0.0691 µg·h/mL and the Cmax/D [2, 6] was 5.5 ng/mL. It also gave a half-life ([2]; oral, 75 mg, Cohort 5, 75 mg Cpd 1 QD fasted, Day 10, median, read-out: t1/2 (converted)) of 21.8 h, a half-life ([2]; oral, 300 mg, Cohort 6, 300 mg Cpd 1 QD fasted, Day 10, median, read-out: t1/2 (converted)) of 19 h and a half-life ([2]; oral, 900 mg, Cohort 7, 900 mg Cpd 1 QD fasted, Day 10, median, read-out: t1/2 (converted)) of 28.5 h. For the same compound, the half-life ([2]; oral, across Compound 1 dose levels, single or multiple doses, read-out: median t1/2) was 20 to 30 h, the AUC ([2]; oral, Cohort 5, 75 mg Cpd 1 QD fasted) was 10500 ng·h/mL and the Tmax ([2]; oral, Cohort 5, 75 mg Cpd 1 QD fasted, Day 10, median, read-out: Tmax) was 3 h. For the same compound, the AUC ([2]; oral, Cohort 6, 300 mg Cpd 1 QD fasted) was 37400 ng·h/mL, the Tmax ([2]; oral, Cohort 6, 300 mg Cpd 1 QD fasted, Day 10, median, read-out: Tmax) was 4 h and the AUC ([2]; oral, Cohort 7, 900 mg Cpd 1 QD fasted) was 62200 ng·h/mL. For the same compound, the Tmax ([2]; oral, Cohort 7, 900 mg Cpd 1 QD fasted, Day 10, median, read-out: Tmax) was 3.01 h, the Tmax ([2]; oral, multiple doses of Compound 1 (75 to 900 mg QD, 600 mg BID), fasted, range across cohorts, read-out: median Tmax) was 2 to 4 h and the half-life ([2]; oral, multiple doses of Compound 1 (75 to 900 mg QD, 600 mg BID), fasted, range across cohorts, read-out: median t1/2) was 19 to 28 h. The half-life ([2]; po, single oral doses of Compound 1 (300 to 1500 mg), fasted, range across doses, read-out: median terminal elimination t1/2) was 22 to 29 h, the Tmax ([2]; single oral doses of Compound 1 (300 to 1500 mg), fasted, range across doses, read-out: median Tmax) was 3 to 4 h and the “exposure (AUC) accumulation” value ([2]; multiple dosing of 600 mg Compound 1 once daily) was “approximately 2 fold”. For the same compound, the “steady-state plasma exposure (Cmax and AUC)” value ([2]; multiple once-daily doses of Compound 1, 75 to 900 mg, fasted) was “increased in a dose-dependent manner” and the “plasma exposure (Cmax, AUCinf, and AUClast)” value ([2]; single oral doses of Compound 1, 300 to 900 mg dose range, fasted) was “increased in a dose-dependent manner”.
